Data reported in patent publication US9115151B2, “Substituted 2,10-dihydro-9-oxa-1,2,4A-triazaphenanthren-3-ones and uses thereof” (AbbVie Inc., priority 2012, dated 2015).
Counter-ions that a name gives are not always drawn. Like-named read-outs stand apart in the source and are kept apart here.

Columns and labels:
PKCθ = target: T1, PKCθ (Homo sapiens, UniProt Q04759); test: In vitro enzyme assay (time-resolved fluorescence kinase assay), PKCθ, 100 μM ATP; type: biochemical
T1 construct: His6; purchased Millipore; host or cells: baculovirus in Sf21 cells
Protocol: (§1) PKC kinase activity was assayed by time-resolved fluorescence in vitro kinase assay. Unless otherwise indicated, all reagents used for enzyme assays were obtained from Sigma. Specifically, 5 μL N- or C-terminal His6-tagged, recombinant, human PKC, expressed by baculovirus in Sf21 cells (Millipore) was mixed with 5 μL inhibitor (various concentrations, 5% final DMSO), 5 μL Bio-cdc peptide (Biotin-Ahx-[…], 2 μM final concentration, New England Peptide) and 5 μL of ATP (100 μM or 1000 μM final concentration) in 1× reaction buffer, 20 μL final volume.
(§2) Following a sixty minute incubation at room temperature, the reaction was quenched with 5 μL of 0.5 M EDTA pH 7.5.
(§3) Background counts from a minus enzyme control is subtracted from all data. Data (after background correction) are converted to percent activity by dividing by the signal obtained from PKC without drug sample.

PKCα = target: T2, PKCα (Homo sapiens, UniProt P17252); test: In vitro enzyme assay (time-resolved fluorescence kinase assay), PKCα, 100 μM ATP; type: biochemical
T2 construct: His6; purchased Millipore; host or cells: baculovirus in Sf21 cells
Protocol: as §1, §2, §3

[1] = tested on: CD3/CD28 induced IL-2 in human T-Blasts; test: T-Blasts CD3/CD28 induced IL-2 assay; type: cell-based; settings: read-out: CD3/CD28-stimulated IL2 in T-blasts EC50
Protocol: T-Blasts CD3/CD28 Induced IL-2 Assay
Human T-Blasts are generated using PHA following standard protocols. T-Blasts are freeze aliquoted and vials thawed as required. […] Seed 2×10^5/100 μL cell suspension per well in flat bottomed 96 well plate. Compound dilutions are prepared from 100% DMSO stocks. A total of 8 serial dilutions are made (1/3 in 100% DMSO). Compounds are diluted 1/50 in growth medium to prepare 4× stocks of each tested concentration. 50 μL from each 4× stock concentration is added to the 100 μL cell suspension and incubated for 30 minutes prior stimulus addition. A 4× stimulus stock is prepared using anti-CD3+anti-CD28 antibodies. Antibody mix is added to the cell/compounds suspension in 50 μL at 5 μg/mL final concentration. Compounds are tested in duplicates. Plates are transferred to 37° C./CO2 incubator for 24 hours. After incubation 130 μL of supernatant is collected for IL-2 determination while MTT toxicity analysis is performed on remaining cells/medium.

[2] = 100 μM ATP, read-out: PKCα enzyme IC50

T1 sequence (Q04759 whole entry): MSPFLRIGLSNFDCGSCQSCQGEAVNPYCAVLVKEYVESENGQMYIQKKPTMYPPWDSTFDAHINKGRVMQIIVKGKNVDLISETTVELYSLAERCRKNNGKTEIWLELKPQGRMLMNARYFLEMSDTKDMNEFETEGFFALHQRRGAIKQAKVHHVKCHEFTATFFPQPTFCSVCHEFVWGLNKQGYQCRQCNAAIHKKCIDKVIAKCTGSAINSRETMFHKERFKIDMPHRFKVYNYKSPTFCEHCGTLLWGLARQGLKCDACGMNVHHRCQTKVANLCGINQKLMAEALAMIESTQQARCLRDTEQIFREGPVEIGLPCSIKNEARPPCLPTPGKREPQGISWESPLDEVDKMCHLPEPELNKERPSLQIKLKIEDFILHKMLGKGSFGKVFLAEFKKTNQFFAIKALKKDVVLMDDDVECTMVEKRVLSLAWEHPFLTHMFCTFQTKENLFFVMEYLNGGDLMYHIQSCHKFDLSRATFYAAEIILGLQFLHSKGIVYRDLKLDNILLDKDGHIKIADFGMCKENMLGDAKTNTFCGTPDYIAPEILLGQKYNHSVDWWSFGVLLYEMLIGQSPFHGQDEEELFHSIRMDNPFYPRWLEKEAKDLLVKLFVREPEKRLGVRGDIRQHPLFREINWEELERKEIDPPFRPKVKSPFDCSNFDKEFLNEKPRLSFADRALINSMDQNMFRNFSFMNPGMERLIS

| SMILES | IC50 (PKCθ) [nM] | IC50 (PKCα; [2]) [nM] | EC50 [1] [nM] | IC50 (PKCα) [nM] |
| --- | --- | --- | --- | --- |
| C[C@@H]1C(=O)NN=C2COc3cc4ccn(C5(C)CN(C)C5)c4cc3N21 [Example 160, (R)-10-(1,3-Dimethyl-azetidin-3-yl)-1-methyl-3,5-dihydro-10H-6-oxa-3,4,10,11b-tetraaza-cyclopenta[b]phenanthren-2-one hydrochloride] | < 250 | 250 to 1000 | < 250 | – |
| Cc1cc2c(cc1C1CCNCC1)N1C(=NNC(=O)C1C)CO2 (stereo not drawn) [Example 75, 4,7-Dimethyl-6-piperidin-4-yl-2,10-dihydro-9-oxa-1,2,4a-triaza-phenanthren-3-one trifluoroacetic acid] | < 250 | 1000 to 10000 | 250 to 1000 | – |
| C[C@@H]1C(=O)NN=C2COc3cc(-c4ccccc4CCO)c(N(C)C4(C)CN(C)C4)cc3N21 [Example 180] | < 250 | 1000 to 10000 | < 250 | – |
| CC(C)N1CC(C)(Nc2cc3c(cc2C2CCOCC2)OCC2=NNC(=O)C(C)N23)C1 (stereo not drawn) [Example 126, 9-((1-Isopropyl-3-methylazetidin-3-yl)amino)-1-methyl-8-(tetrahydro-2H-pyran-4-yl)-3,5-dihydrobenzo[5,6][1,4]oxazino[3,4-c][1,2,4]triazin-2(1H)-one trifluoroacetic acid] | < 250 | 1000 to 10000 | 250 to 1000 | – |
| CC(C)c1cc2c(cc1OC1(C)CNC1)N1C(=NNC(=O)[C@@H]1C)CO2 (single isomer, unassigned) [Example 121-1, trifluoroacetic acid] | < 250 | 1000 to 10000 | 250 to 1000 | – |
| C[C@H]1C(=O)NN=C2COc3cc(C(F)(F)F)c(NC4(C)CNC4)cc3N21 [Example 100-2, (S)-1-Methyl-9-((3-methylazetidin-3-yl)amino)-8-(trifluoromethyl)-3,5-dihydrobenzo[5,6][1,4]oxazino[3,4-c][1,2,4]triazin-2(1H)-one trifluoacetic acid salt] | – | 250 to 1000 | 250 to 1000 | – |
| C[C@@H]1C(=O)NN=C2COc3cc(C(F)(F)F)c(NC4(C)CNC4)cc3N21 (single isomer, unassigned) [Example 100-1, trifluoroacetic acid] | – | 1000 to 10000 | < 250 | – |
| CC1NCC1Nc1ccc2c(c1)N1C(=NNC(=O)C1C)CO2 (stereo not drawn) [Example 118, 4-Methyl-6-(2-methyl-azetidin-3-ylamino)-2,10-dihydro-9-oxa-1,2,4a-triaza-phenanthren-3-one trifluoroacetic acid] | 250 to 1000 | 1000 to 10000 | – | – |
| C[C@H]1C(=O)NN=C2COc3cc4ccn([C@]5(C)CCNC5)c4cc3N21 [Example 165, (S)-1-Methyl-10-((R)-3-methyl-pyrrolidin-3-yl)-3,5-dihydro-10H-6-oxa-3,4,10,11b-tetraaza-cyclopenta[b]phenanthren-2-one] | 250 to 1000 | 1000 to 10000 | – | – |
| C[C@@H]1C(=O)NN=C2COc3cc(C(F)(F)F)c([C@H](C)C4(C)CNC4)cc3N21 (single isomer, unassigned) [Example 147-2, trifluoroacetic acid] | 1000 to 10000 | 1000 to 10000 | – | – |
| CC1C(=O)NN=C2COc3cc(C(F)(F)F)c(NC4(C)CNC4)cc3N21 (stereo not drawn) [Example 81, 4-Methyl-6-(3-methyl-azetidin-3-ylamino)-7-trifluoromethyl-2,10-dihydro-9-oxa-1,2,4a-triaza-phenanthren-3-one] | – | 1000 to 10000 | 250 to 1000 | – |
| Cc1ccc(-c2cc3c(cc2[C@@H]2CCN(C)C[C@@H]2C)N2C(=NNC(=O)[C@H]2C)CO3)c(F)c1 [Example 200] | – | < 250 | < 250 | – |
| COc1ccc(-c2cc3c(cc2[C@@H]2CCN(C)C[C@@H]2C)N2C(=NNC(=O)[C@H]2C)CO3)c(F)c1 [Example 201] | – | – | < 250 | < 250 |
| Cc1cc2c(cc1NC1(C)CNC1)N1C(=NNC(=O)C1C)CO2 (stereo not drawn) [Example 98, 4,7-Dimethyl-6-(3-methyl-azetidin-3-ylamino)-2,10-dihydro-9-oxa-1,2,4a-triaza-phenanthren-3-one trifluoroacetic acid] | 1000 to 10000 | 1000 to 10000 | – | – |
| C[C@@H]1C(=O)NN=C2COc3cc(-c4c(F)cccc4F)c([C@@H]4CCN(C)C[C@@H]4C)cc3N21 [Example 245, (R)-7-(2,6-Difluoro-phenyl)-6-((3R,4R)-1,3-dimethyl-piperidin-4-yl)-4-methyl-2,10-dihydro-9-oxa-1,2,4a-triaza-phenanthren-3-one] | – | 250 to 1000 | < 250 | – |

Now from value to compound, other results behind:

| IC50 (PKCθ) [nM] | IC50 (PKCα; [2]) [nM] | EC50 [1] [nM] | SMILES | IC50 (PKCα) [nM] |
| --- | --- | --- | --- | --- |
| < 250 | 1000 to 10000 | < 250 | CC(C)c1cc2c(cc1OC1CNC1)N1C(=NNC(=O)[C@H]1C)CO2 (single isomer, unassigned) [Example 96, trifluoroacetic acid] | – |
| 250 to 1000 | 1000 to 10000 | 250 to 1000 | CC(C)c1cc2c(cc1OC1CNC1)N1C(=NNC(=O)C1C)CO2 (stereo not drawn) [Example 68, 6-(Azetidin-3-yloxy)-7-isopropyl-4-methyl-2,10-dihydro-9-oxa-1,2,4a-triaza-phenanthren-3-one trifluoroacetic acid] | – |
| < 250 | 1000 to 10000 | < 250 | COc1ccc2cc(-c3cc4c(cc3NC3CNC3)N3C(=NNC(=O)C3C)CO4)ccc2c1 (racemic) [Example 35] | – |
| < 250 | 1000 to 10000 | 250 to 1000 | CC1C(=O)NN=C2COc3cc(-c4ccccc4)c(NC4CNC4)cc3N21 (racemic) [Example 51] | – |
| < 250 | 1000 to 10000 | 250 to 1000 | CCc1cc2c(cc1NC1CNC1)N1C(=NNC(=O)C1C)CO2 (stereo not drawn) [Example 59] | – |
| < 250 | 1000 to 10000 | 250 to 1000 | Cc1cc(-c2cc3c(cc2NC2CNC2)N2C(=NNC(=O)C2C)CO3)ccc1F (racemic) [Example 32] | – |
| – | 1000 to 10000 | < 250 | C[C@@H]1C(=O)NN=C2COc3cc(C(F)(F)F)c(NC4CNC4)cc3N21 (single isomer, unassigned) [Example 53-2, trifluoroacetic acid] | – |
| < 250 | 1000 to 10000 | < 250 | CC1C(=O)NN=C2COc3cc(-c4cccc(C#N)c4)c(N(C)C4(C)CN(C)C4)cc3N21 (stereo not drawn) [Example 170] | – |
| < 250 | 1000 to 10000 | < 250 | C[C@@H]1C(=O)NN=C2COc3cc(C4CC4)c(NC4CNC4)cc3N21 (single isomer, unassigned) [Example 64-1, trifluoroacetic acid] | – |
| < 250 | 1000 to 10000 | < 250 | C[C@@H]1C(=O)NN=C2COc3cc(-c4ccc(F)cc4)c(NC4CNC4)cc3N21 [Example 9] | – |
| – | 1000 to 10000 | 250 to 1000 | C[C@H]1C(=O)NN=C2COc3cc(C(F)(F)F)c(NC4CNC4)cc3N21 (single isomer, unassigned) [Example 53-1, trifluoroacetic acid] | – |
| < 250 | – | < 250 | COc1ccc(F)c(-c2cc3c(cc2[C@@H]2CCN(C)C[C@@H]2C)N2C(=NNC(=O)[C@H]2C)CO3)c1 [Example 241] | – |
| < 250 | – | < 250 | COc1cccc(-c2cc3c(cc2[C@@H]2CCN(C)C[C@@H]2C)N2C(=NNC(=O)[C@H]2C)CO3)c1F [Example 237, (R)-6-((3R,4R)-1,3-Dimethyl-piperidin-4-yl)-7-(2-fluoro-3-methoxy-phenyl)-4-methyl-2,10-dihydro-9-oxa-1,2,4a-triaza-phenanthren-3-one] | – |
| 250 to 1000 | 1000 to 10000 | – | CC1C(=O)NN=C2COc3cc(-c4ccccc4F)c(N4CC5CCC4CN5)cc3N21 (stereo not drawn) [Example 229] | – |
